Laboratory results taken from patent US12077503B2, “Substituted cyclic amides and their use as herbicides” (FMC CORPORATION, priority 2015, dated 2024).
Like-named read-outs stand apart in the source and are kept apart here.

Tests used:
Format in all cases: in vivo
Kochia (Kochia scoparia) = assay: Test A preemergence; conditions: Bassia scoparia, pre-emergence, 240 h; for pest or weed control at 125 g/ha: 125 g ai/ha; for pest or weed control at 500 g/ha: 500 g ai/ha
Procedure, shortened: (§1)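 Visual injury, scored on a 0–100 scale relative to untreated controls, was recorded about 10 d after application. Treatments were a preemergence soil spray over planted seeds or a postemergence spray on plants at the one- to two-leaf stage, 2 to 10 cm tall, all in loam soil–sand blend in the greenhouse.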

[1] = system: barnyardgrass (Echinochloa crus-galli); assay: Test A preemergence; conditions: Echinochloa crus-galli, pre-emergence, 240 h; for pest or weed control at 125 g/ha: 125 g ai/ha; for pest or weed control at 500 g/ha: 500 g ai/ha
Procedure, shortened: as §1

[2] = system: giant foxtail (Setaria faberii); assay: Test A preemergence; conditions: Setaria faberi, pre-emergence, 240 h; for pest or weed control at 125 g/ha: 125 g ai/ha; for pest or weed control at 500 g/ha: 500 g ai/ha
Procedure, shortened: as §1

[3] = system: pigweed (Amaranthus retroflexus); assay: Test A preemergence; conditions: Amaranthus retroflexus, pre-emergence, 240 h; for pest or weed control at 125 g/ha: 125 g ai/ha; for pest or weed control at 500 g/ha: 500 g ai/ha
[4] = system: ragweed (common ragweed, Ambrosia elatior); assay: Test A preemergence; conditions: Ambrosia artemisiifolia, pre-emergence, 240 h; for pest or weed control at 125 g/ha: 125 g ai/ha; for pest or weed control at 500 g/ha: 500 g ai/ha
Procedure, shortened: as §1

[5] = system: ryegrass, Italian (Italian ryegrass, Lolium multiflorum); assay: Test A preemergence; conditions: Lolium multiflorum, pre-emergence, 240 h; for pest or weed control at 125 g/ha: 125 g ai/ha; for pest or weed control at 500 g/ha: 500 g ai/ha
Procedure, shortened: as §1

[6] = system: blackgrass (Alopecurus myosuroides); assay: Test A postemergence; conditions: Alopecurus myosuroides, post-emergence, 240 h, postemergence; for pest or weed control at 125 g/ha: 125 g ai/ha
Procedure, shortened: as §1

corn (Zea mays) = assay: Test A postemergence; conditions: Zea mays, post-emergence, 240 h, postemergence; for plant injury at 125 g/ha: 125 g ai/ha
Procedure, shortened: as §1

[7] = system: pigweed (Amaranthus retroflexus); assay: Test A postemergence; conditions: Amaranthus retroflexus, post-emergence, 240 h, postemergence; for pest or weed control at 125 g/ha: 125 g ai/ha
Procedure, shortened: as §1

[8] = system: ragweed (common ragweed, Ambrosia elatior); assay: Test A postemergence; conditions: Ambrosia artemisiifolia, post-emergence, 240 h, postemergence; for pest or weed control at 125 g/ha: 125 g ai/ha
Procedure, shortened: as §1

[9] = system: ryegrass, Italian (Italian ryegrass, Lolium multiflorum); assay: Test A postemergence; conditions: Lolium multiflorum, post-emergence, 240 h, postemergence; for pest or weed control at 125 g/ha: 125 g ai/ha
Procedure, shortened: as §1

[10] = system: barnyardgrass (Echinochloa crus-galli); assay: Test B flooded paddy test; conditions: Echinochloa crus-galli, Flood, 250 g ai/ha, read-out: Barnyardgrass plant response rating
Procedure, shortened: (§2)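 Percent control, visually estimated after 13–15 d in the greenhouse on a 0–100 basis, compares treated pots with untreated ones; compound was put into paddy water 3 cm above the soil when plants had two leaves.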

[11] = system: ducksalad (Heteranthera limosa); assay: Test B flooded paddy test; conditions: Heteranthera limosa, Flood, 250 g ai/ha, read-out: Ducksalad plant response rating
Procedure, shortened: as §2

rice (Oryra sativa) = assay: Test B flooded paddy test; conditions: Oryza sativa, Flood, 250 g ai/ha, read-out: Rice plant response rating
Procedure, shortened: as §2

[12] = system: sedge, umbrella (small-flower umbrella sedge, Cyperus difformis); assay: Test B flooded paddy test; conditions: Cyperus difformis, Flood, 250 g ai/ha, read-out: Sedge, Umbrella plant response rating
Procedure, shortened: as §2

[13] = preemergence, 0 to 100 scale where 0 is no effect and 100 is complete control, read-out: Kochia plant response rating
[14] = preemergence, 0 to 100 scale where 0 is no effect and 100 is complete control, read-out: Barnyardgrass plant response rating
[15] = preemergence, 0 to 100 scale where 0 is no effect and 100 is complete control, read-out: Foxtail, Giant plant response rating
[16] = preemergence, 0 to 100 scale where 0 is no effect and 100 is complete control, read-out: Pigweed plant response rating
[17] = preemergence, 0 to 100 scale where 0 is no effect and 100 is complete control, read-out: Ragweed plant response rating
[18] = preemergence, 0 to 100 scale where 0 is no effect and 100 is complete control, read-out: Ryegrass, Italian plant response rating
[19] = scale of 0 to 100 where 0 is no effect and 100 is complete control
[20] = 0 to 100 scale where 0 is no effect and 100 is complete control

CC(C)c1cccc([C@H]2CN(C)C(=O)[C@@H]2C(=O)Nc2ccc(F)cc2F)c1 [Compound 821]
pest or weed control at 125 g/ha (Kochia (Kochia scoparia); [13]): 70% | pest or weed control at 500 g/ha (Kochia (Kochia scoparia); Preemergence, visual injury vs untreated controls after approximately 10 d, read-out: Kochia plant response rating (0 to 100 scale where 0 is no effect and 100 is complete control)): 90% | pest or weed control at 125 g/ha [1, 14]: 90% | pest or weed control at 500 g/ha ([1]; Preemergence, visual injury vs untreated controls after approximately 10 d, read-out: Barnyardgrass plant response rating (0 to 100 scale where 0 is no effect and 100 is complete control)): 90% | pest or weed control at 125 g/ha [2, 15]: 90% | pest or weed control at 500 g/ha ([2]; Preemergence, visual injury vs untreated controls after approximately 10 d, read-out: Foxtail, Giant plant response rating (0 to 100 scale where 0 is no effect and 100 is complete control)): 100% | pest or weed control at 125 g/ha [3, 16]: 50% | pest or weed control at 500 g/ha ([3]; Preemergence, visual injury vs untreated controls after approximately 10 d, read-out: Pigweed plant response rating (0 to 100 scale where 0 is no effect and 100 is complete control)): 50% | pest or weed control at 125 g/ha [4, 17]: 0% | pest or weed control at 500 g/ha ([4]; Preemergence, visual injury vs untreated controls after approximately 10 d, read-out: Ragweed plant response rating (0 to 100 scale where 0 is no effect and 100 is complete control)): 0% | pest or weed control at 125 g/ha [5, 18]: 80% | pest or weed control at 500 g/ha ([5]; Preemergence, visual injury vs untreated controls after approximately 10 d, read-out: Ryegrass, Italian plant response rating (0 to 100 scale where 0 is no effect and 100 is complete control)): 90% | pest or weed control at 125 g/ha ([6]; visual injury rating after approximately 10 d, read-out: Blackgrass plant response rating (0 to 100 scale, 0 no effect, 100 complete control)): 70% | plant injury at 125 g/ha (corn (Zea mays); visual injury rating after approximately 10 d, read-out: Corn plant response rating (0 to 100 scale, 0 no effect, 100 complete control)): 40% | pest or weed control at 125 g/ha ([7]; visual injury rating after approximately 10 d, read-out: Pigweed plant response rating (0 to 100 scale, 0 no effect, 100 complete control)): 0% | pest or weed control at 125 g/ha ([8]; visual injury rating after approximately 10 d, read-out: Ragweed plant response rating (0 to 100 scale, 0 no effect, 100 complete control)): 0% | pest or weed control at 125 g/ha ([9]; visual injury rating after approximately 10 d, read-out: Ryegrass, Italian plant response rating (0 to 100 scale, 0 no effect, 100 complete control)): 20% | pest or weed control at 250 g/ha [10, 19]: 60% | pest or weed control at 250 g/ha [11, 19]: 80% | pest or weed control at 250 g/ha (rice (Oryra sativa); [19]): 0% | pest or weed control at 250 g/ha [12, 19]: 0%

CCc1cc([C@H]2CNC(=O)[C@@H]2C(=O)Nc2cccc(F)c2F)cs1 [Compound 1155]
pest or weed control at 125 g/ha (Kochia (Kochia scoparia); preemergence, 0 to 100 scale where 0 is no effect and 100 is complete control, approx. 10 d, read-out: Kochia plant response rating): 60% | pest or weed control at 500 g/ha (Kochia (Kochia scoparia); [13]): 90% | pest or weed control at 125 g/ha ([1]; preemergence, 0 to 100 scale where 0 is no effect and 100 is complete control, approx. 10 d, read-out: Barnyardgrass plant response rating): 90% | pest or weed control at 500 g/ha [1, 14]: 100% | pest or weed control at 125 g/ha ([2]; preemergence, 0 to 100 scale where 0 is no effect and 100 is complete control, approx. 10 d, read-out: Foxtail, Giant plant response rating): 70% | pest or weed control at 500 g/ha [2, 15]: 90% | pest or weed control at 125 g/ha ([3]; preemergence, 0 to 100 scale where 0 is no effect and 100 is complete control, approx. 10 d, read-out: Pigweed plant response rating): 0% | pest or weed control at 500 g/ha [3, 16]: 30% | pest or weed control at 125 g/ha ([4]; preemergence, 0 to 100 scale where 0 is no effect and 100 is complete control, approx. 10 d, read-out: Ragweed plant response rating): 40% | pest or weed control at 500 g/ha [4, 17]: 80% | pest or weed control at 125 g/ha ([5]; preemergence, 0 to 100 scale where 0 is no effect and 100 is complete control, approx. 10 d, read-out: Ryegrass, Italian plant response rating): 0% | pest or weed control at 500 g/ha [5, 18]: 30% | pest or weed control at 125 g/ha ([6]; visual injury vs untreated controls after approx. 10 d, 0 = no effect, 100 = complete control, read-out: Blackgrass plant response rating (0 to 100 scale)): 0% | pest or weed control at 500 g/ha ([6]; 500 g ai/ha, 0 to 100 scale, 0 is no effect, 100 is complete control, read-out: Blackgrass plant response rating): 0% | plant injury at 125 g/ha (corn (Zea mays); visual injury vs untreated controls after approx. 10 d, 0 = no effect, 100 = complete control, read-out: Corn plant response rating (0 to 100 scale)): 20% | plant injury at 500 g/ha (corn (Zea mays); 500 g ai/ha, 0 to 100 scale, 0 is no effect, 100 is complete control, read-out: Corn plant response rating): 30% | pest or weed control at 125 g/ha ([7]; visual injury vs untreated controls after approx. 10 d, 0 = no effect, 100 = complete control, read-out: Pigweed plant response rating (0 to 100 scale)): 0% | pest or weed control at 500 g/ha ([7]; 500 g ai/ha, 0 to 100 scale, 0 is no effect, 100 is complete control, read-out: Pigweed plant response rating): 0% | pest or weed control at 125 g/ha ([8]; visual injury vs untreated controls after approx. 10 d, 0 = no effect, 100 = complete control, read-out: Ragweed plant response rating (0 to 100 scale)): 0% | pest or weed control at 500 g/ha ([8]; 500 g ai/ha, 0 to 100 scale, 0 is no effect, 100 is complete control, read-out: Ragweed plant response rating): 40% | pest or weed control at 125 g/ha ([9]; visual injury vs untreated controls after approx. 10 d, 0 = no effect, 100 = complete control, read-out: Ryegrass, Italian plant response rating (0 to 100 scale)): 0% | pest or weed control at 500 g/ha ([9]; 500 g ai/ha, 0 to 100 scale, 0 is no effect, 100 is complete control, read-out: Ryegrass, Italian plant response rating): 20% | pest or weed control at 250 g/ha [10, 20]: 50% | pest or weed control at 250 g/ha [11, 20]: 100% | pest or weed control at 250 g/ha (rice (Oryra sativa); [20]): 20% | pest or weed control at 250 g/ha [12, 20]: 0%
